From patent publication US4386077A (Made Italiana s.r.l, priority 1981, dated 1983)

Legend:
[1] = Serum kinetics and absolute bioavailability of ^14 C-labelled CDP-choline and "ASONIC" after i.v. and oral administration in Cynomolgus monkeys; type: in vivo, Cynomolgus monkey; conditions: for Plasmatic concentration: average and S.D. of 2 monkeys, 400 mg/kg per os; for Absolute bioavailability F: oral
Method: From the end of the curves serum concentration/time, it was possible to calculate the constant of the apparent elimination speed from the organism as well as the relative half-life. These values were utilized in calculating the AUC T30 hours →T.infin. for the total of the curves concentration/time in the same animal. The AUC To →T30 hrs was calculated by means of the trapezium methods. […] For each dosage, a randomized cross-over procedure was used. Seriated blood samples were collected until 30 hours after each administration. From the single curves concentration/time it was possible to calculate the AUC To →T30 hrs. After each administration, including the intravenous one, urine was collected at the following time intervals: 0-24 hours, 24-48 hours and 48-72 hours.

[2] = type: in vivo, rat; conditions: rats, oral (gastric gavage), 50 mg CDP-choline, 24 hours
Method: The labelled carbon atom is that of the methyl group of the choline moiety.
At different time intervals a certain amount of blood is collected and, after 24 hours from the beginning of the experiment, the animals are sacrificed. The amount of radioactivity is measured in predetermined serum volumes or weight of the various organs or tissues.
The values are expressed as c.p.m.x 10^-3 /gram of organ or tissue.

Molecule `C[N+](C)(C)CCOP(=O)(O)OP(=O)([O-])OC[C@H]1O[C@@H](n2ccc(N)nc2=O)[C@H](O)[C@@H]1O` [CDP-choline, cytidine diphosphocholine] has a Plasmatic concentration ([1]; 9 hr) of 4813 ± 513 DPM/ml serum, a Plasmatic concentration ([1]; 24 hr) of 536 ± 122 DPM/ml serum and a Plasmatic concentration ([1]; 30 hr) of 470 ± 98 DPM/ml serum. For the same molecule, the Serum concentration ([1]; monkey no. 1, 25 mg/kg i.v., 5') was 8708 DPM/ml, the Serum concentration ([1]; monkey no. 1, 25 mg/kg i.v., 15') was 3169 DPM/ml and the Serum concentration ([1]; monkey no. 1, 25 mg/kg i.v., 30') was 2226 DPM/ml. For the same molecule, the Serum concentration ([1]; monkey no. 1, 25 mg/kg i.v., 60') was 1629 DPM/ml, the Serum concentration ([1]; monkey no. 1, 25 mg/kg i.v., 2 hr) was 2165 DPM/ml and the Serum concentration ([1]; monkey no. 1, 25 mg/kg i.v., 4 hr) was 2760 DPM/ml. For the same molecule, the Serum concentration ([1]; monkey no. 1, 25 mg/kg i.v., 7 hr) was 3120 DPM/ml, the Serum concentration ([1]; monkey no. 1, 25 mg/kg i.v., 24 hr) was 1812 DPM/ml and the Serum concentration ([1]; monkey no. 1, 25 mg/kg i.v., 30 hr) was 1749 DPM/ml. For the same molecule, the Serum concentration ([1]; monkey no. 1, 200 mg/kg per os, 30') was 45 DPM/ml, the Serum concentration ([1]; monkey no. 1, 200 mg/kg per os, 45') was 53 DPM/ml and the Serum concentration ([1]; monkey no. 1, 200 mg/kg per os, 60') was 88 DPM/ml. For the same molecule, the Serum concentration ([1]; monkey no. 1, 200 mg/kg per os, 7 hr) was 852 DPM/ml, the Serum concentration ([1]; monkey no. 1, 200 mg/kg per os, 9 hr) was 743 DPM/ml and the Serum concentration ([1]; monkey no. 1, 200 mg/kg per os, 24 hr) was 339 DPM/ml. For the same molecule, the Serum concentration ([1]; monkey no. 1, 400 mg/kg per os, 30') was 35 DPM/ml, the Serum concentration ([1]; monkey no. 1, 400 mg/kg per os, 60') was 52 DPM/ml and the Serum concentration ([1]; monkey no. 1, 400 mg/kg per os, 90') was 29 DPM/ml. For the same molecule, the Serum concentration ([1]; monkey no. 1, 400 mg/kg per os, 2 hr) was 75 DPM/ml, the Serum concentration ([1]; monkey no. 1, 400 mg/kg per os, 3 hr) was 187 DPM/ml and the Serum concentration ([1]; monkey no. 1, 400 mg/kg per os, 4 hr) was 401 DPM/ml. The Serum concentration ([1]; monkey no. 1, 400 mg/kg per os, 6 hr) was 1590 DPM/ml, the Serum concentration ([1]; monkey no. 1, 400 mg/kg per os, 7 hr) was 2712 DPM/ml and the Serum concentration ([1]; monkey no. 1, 400 mg/kg per os, 8 hr) was 4092 DPM/ml. It also gave a Serum concentration ([1]; monkey no. 1, 400 mg/kg per os, 9 hr) of 5175 DPM/ml, a Serum concentration ([1]; monkey no. 1, 400 mg/kg per os, 24 hr) of 622 DPM/ml and a Serum concentration ([1]; monkey no. 1, 400 mg/kg per os, 30 hr) of 540 DPM/ml. It also gave a Serum concentration ([1]; monkey no. 2, 25 mg/kg i.v., 5') of 12414 DPM/ml, a Serum concentration ([1]; monkey no. 2, 25 mg/kg i.v., 15') of 5007 DPM/ml and a Serum concentration ([1]; monkey no. 2, 25 mg/kg i.v., 30') of 3467 DPM/ml. The Serum concentration ([1]; monkey no. 2, 25 mg/kg i.v., 60') was 2625 DPM/ml, the Serum concentration ([1]; monkey no. 2, 25 mg/kg i.v., 2 hr) was 2630 DPM/ml and the Serum concentration ([1]; monkey no. 2, 25 mg/kg i.v., 4 hr) was 3369 DPM/ml. The Serum concentration ([1]; monkey no. 2, 25 mg/kg i.v., 7 hr) was 4013 DPM/ml, the Serum concentration ([1]; monkey no. 2, 25 mg/kg i.v., 24 hr) was 2258 DPM/ml and the Serum concentration ([1]; monkey no. 2, 25 mg/kg i.v., 30 hr) was 2145 DPM/ml. It also gave a Serum concentration ([1]; monkey no. 2, 200 mg/kg per os, 15') of 61 DPM/ml, a Serum concentration ([1]; monkey no. 2, 200 mg/kg per os, 45') of 59 DPM/ml and a Serum concentration ([1]; monkey no. 2, 200 mg/kg per os, 60') of 94 DPM/ml. The Serum concentration ([1]; monkey no. 2, 200 mg/kg per os, 7 hr) was 696 DPM/ml, the Serum concentration ([1]; monkey no. 2, 200 mg/kg per os, 9 hr) was 595 DPM/ml and the Serum concentration ([1]; monkey no. 2, 200 mg/kg per os, 24 hr) was 417 DPM/ml. The Serum concentration ([1]; monkey no. 2, 200 mg/kg per os, 30 hr) was 303 DPM/ml, the Serum concentration ([1]; monkey no. 2, 400 mg/kg per os, 60') was 69 DPM/ml and the Serum concentration ([1]; monkey no. 2, 400 mg/kg per os, 90') was 52 DPM/ml. The Serum concentration ([1]; monkey no. 2, 400 mg/kg per os, 2 hr) was 81 DPM/ml, the Serum concentration ([1]; monkey no. 2, 400 mg/kg per os, 3 hr) was 174 DPM/ml and the Serum concentration ([1]; monkey no. 2, 400 mg/kg per os, 4 hr) was 495 DPM/ml. The Serum concentration ([1]; monkey no. 2, 400 mg/kg per os, 6 hr) was 1.401 DPM/ml, the Serum concentration ([1]; monkey no. 2, 400 mg/kg per os, 7 hr) was 2.560 DPM/ml and the Serum concentration ([1]; monkey no. 2, 400 mg/kg per os, 8 hr) was 4.235 DPM/ml. It also gave a Serum concentration ([1]; monkey no. 2, 400 mg/kg per os, 9 hr) of 4.450 DPM/ml, a Serum concentration ([1]; monkey no. 2, 400 mg/kg per os, 24 hr) of 449 DPM/ml and a Serum concentration ([1]; monkey no. 2, 400 mg/kg per os, 30 hr) of 401 DPM/ml. The “Absolute bioavailability” value ([1]; monkeys, oral control dosages) was “much lower”, the “Absolute bioavailability F” value ([1]; monkeys, 200 mg/kg as CDP-choline) was 0.2143 and the “Absolute bioavailability F” value ([1]; monkeys, 400 mg/kg as CDP-choline) was 0.6174. For the same molecule, the “Radioactivity value in brain” value [2] was 1.55 c.p.m.x 10^-3 /gram of organ o, the “Radioactivity value in kidney” value [2] was 46.3 c.p.m.x 10^-3 /gram of organ o and the “Radioactivity value in liver” value [2] was 65.4 c.p.m.x 10^-3 /gram of organ o. For the same molecule, the “Radioactivity value in muscle” value [2] was 3.1 c.p.m.x 10^-3 /gram of organ o.
